US11345666B2, “Phenyl and pyridinyl substituted imidazoles as modulators of RORγT” (Janssen Pharmaceutica NV, priority 2018, dated 2022)

Columns and labels:
[1] = biological target: human RORγt ligand binding domain (RORγt LBD) (Homo sapiens (Human), UniProt P51449); experiment: RORγt ThermoFluor assay
Text: ThermoFluor® is a fluorescence based assay that estimates ligand binding affinities by measuring the effect of a ligand on protein thermal stability (Pantoliano, M. W., Petrella, E. C., Kwasnoski, J. D., Lobanov, V. S., Myslik, J., Graf, E., Carver, T., Asel, E., Springer, B. A., Lane, P., and Salemme, F. R. (2001) High-density miniaturized thermal shift assays as a general strategy for drug discovery. J Biomol Screen 6, 429-40, and Matulis, D., Kranz, J. K., Salemme, F. R., and Todd, M. J. (2005) Thermodynamic stability of carbonic anhydrase: measurements of binding affinity and stoichiometry using ThermoFluor. Biochemistry 44, 5258-66). This approach is applicable to a wide variety of systems, and rigorous in theoretical interpretation through quantitation of equilibrium binding constants (KD).
The shift in the melting point described as a ΔTm is proportional to the concentration and affinity of the ligand.
RORγt ThermoFluor® Assay Construct
Nucleotides 850-1635 (SEQ ID NO:2) coding for the wild type human RORγt ligand binding domain (RORγt LBD) were cloned into the pHIS 1 vector, a modified pET E. coli expression vector (Accelagen, San Diego), containing an in-frame N-terminal His-tag and a TurboTEV protease cleavage site (ENLYFQG, SEQ ID NO:3) upstream of the cloned insert sequence. The amino acid sequence for the RORγt construct used in the Thermofluor® assay is shown as SEQ ID NO:4.
ThermoFluor® experiments were carried out using instruments owned by Janssen Research and Development, L.L.C. through its acquisition of 3-Dimensional Pharmaceuticals, Inc. 1,8-ANS (Invitrogen) was used as a fluorescent dye. Protein and compound solutions are dispensed into black 384-well polypropylene PCR microplates (Abgene) and overlayed with silicone oil (1 μL, Fluka, type DC 200) to prevent evaporation.
Bar-coded assay plates are robotically loaded onto a thermostatically controlled PCR-type thermal block and then heated at a typical ramp-rate of 1° C./min for all experiments. Fluorescence was measured by continuous illumination with UV light (Hamamatsu LC6) supplied via fiber optic and filtered through a band-pass filter (380-400 nm; >6 OD cutoff). Fluorescence emission of the entire 384-well plate was detected by measuring light intensity using a CCD camera (Sensys, Roper Scientific) filtered to detect 500±25 nm, resulting in simultaneous and independent readings of all 384 wells. Images were collected at each temperature, and the sum of the pixel intensity in a given area of the assay plate was recorded versus temperature. Reference wells contained RORγt without compounds, and the assay conditions were as follows: • 0.065 mg/mL RORγt • 60 μM 1,8-ANS • 100 mM Hepes, pH 7.0 • 10 mM NaCl • 2.5 mM GSH • 0.002% Tween-20
Project compounds were arranged in a pre-dosed mother plate (Greiner Bio-one) wherein compounds are serially diluted in 100% DMSO by 1:2 from a high concentration of 10 mM over 12 columns within a series (column 12 is a reference well containing DMSO, no compound). The compounds were robotically dispensed directly into assay plates (1×=46 nL) using a Hummingbird capillary liquid handling instrument (Digilab). Following compound dispense, protein and dye in buffer was added to achieve the final assay volume of 3 μL, followed by 1 μL of silicone oil.
The binding affinity was estimated as described previously (Matulis, D., Kranz, J. K., Salemme, F. R., and Todd, M. J. (2005) Thermodynamic stability of carbonic anhydrase: measurements of binding affinity and stoichiometry using ThermoFluor®. Biochemistry 44, 5258-66) using the following thermodynamic parameters of protein unfolding: […]

full-length human RORγt = full-length human RORγt (Homo sapiens (Human), UniProt P51449); experiment: RORγt (full-length human) reporter assay, conditions A or B; type: cell-based; settings: for IC50: HEK293T cells, read-out: RORγt (FL) Reporter Assay A or B, IC50; for inhibition at 6 µM: read-out: RORγt (FL) Reporter Assay A or B, % inhibition @ 6 μM, 6 μM compound concentration; for inhibition at 3 µM: 3 μM compound concentration (*); for inhibition at 2 µM: 2 μM compound concentration (**)
Chain of full-length human RORγt (P51449 other isoform, or with tags, fused parts or gaps): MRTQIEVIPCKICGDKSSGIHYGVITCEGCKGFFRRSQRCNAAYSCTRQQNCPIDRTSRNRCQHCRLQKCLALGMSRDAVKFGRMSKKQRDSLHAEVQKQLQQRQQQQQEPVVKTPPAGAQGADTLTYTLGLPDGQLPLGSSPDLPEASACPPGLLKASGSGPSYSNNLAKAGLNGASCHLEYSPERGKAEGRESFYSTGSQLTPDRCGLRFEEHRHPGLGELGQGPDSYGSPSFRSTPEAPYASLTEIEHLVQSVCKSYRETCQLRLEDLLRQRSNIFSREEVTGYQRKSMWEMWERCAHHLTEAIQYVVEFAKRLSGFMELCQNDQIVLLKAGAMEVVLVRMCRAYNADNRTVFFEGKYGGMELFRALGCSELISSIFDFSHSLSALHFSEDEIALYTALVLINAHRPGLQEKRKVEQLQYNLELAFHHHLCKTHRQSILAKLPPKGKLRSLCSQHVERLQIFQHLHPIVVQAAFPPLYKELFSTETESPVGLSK
Text: RORγt (Full-Length Human) Reporter Assay:
Cells used in this assay were transiently co-transfected with three different plasmids, one expressing the GAL4-DNA binding domain (DBD)-RORγt fusion protein under control of a CMV promoter (NH2-Gal4-DBD:RORC—COOH in pCMV-BD, Stratagene #211342), and two reporter plasmids—the firefly luciferase reporter under control of a GAL4 promoter (pFR-Luc 2×GAL4) and Renilla luciferase reporter under control of CMV promoter (pRL-CMV, Promega #E2261). […] HEK293T cells were plated at 35,000 per well in 96-well plate in medium of DMEM with 10% FBS. After 18-22 hours incubation, the transfection was carried out by using a PEI solution with 170.5 ng total DNA/well (50 ng pCMV-BD-ROR plus 20 ng of pFR-Luc reporter and 0.5 ng of pRL-CMV reporter plus 100 ng Carrier DNA (Clontech #630440) for each well). 4-6 hours after transfection, cells were treated with compounds for overnight in the medium with final concentration of FBS 1.3% and DMSO 0.1%. After overnight (16 to 20 hours) incubation, media were removed and cells were lysed with […] Glo Lysis Buffer (Promega) for 10-15 minutes followed by 10 minute incubation with 50 μL Dual Glo reagent (Promega) at room temperature. Firefly luciferase luminescence was measured using a BMG Pherastar plate reader. To each well, 50 μL Stop and Glo reagent was added and incubated for 10 minutes at room temperature. Renilla luminescence was measured using a BMG Pherastar plate reader. To calculate the effect of compounds on RORγt activity, firefly values were normalized against values of DMSO only and values of reference compound at saturating concentration, then further normalized against Renilla signals. IC50s were generated by plotting final Renilla normalized data against compound concentration and percent inhibition was calculated against DMSO control.
Cells used in this assay were transiently co-transfected with three different plasmids, one expressing the GAL4-DNA binding domain (DBD)-RORγt fusion protein under control of a CMV promoter (NH2-Gal4-DBD:RORC—COOH in pCMV-BD, Stratagene #211342), and two reporter plasmids—the firefly luciferase reporter under control of a GAL4 promoter (pFR-Luc 2×GAL4) and Renilla luciferase reporter under control of CMV promoter (pRL-CMV, Promega #E2261). […] HEK293T cells were plated at 8750 cells per well in 384-well plate in medium of DMEM with 10% FBS. After 18-22 hours incubation, the transfection was carried out by using a PEI solution with 42.6 ng total DNA/well (12.5 ng pCMV-BD-ROR plus 5 ng of pFR-Luc reporter and 0.125 ng of pRL-CMV reporter plus 25 ng Carrier DNA (Clontech #630440) for each well). 4-6 hours after transfection, cells were treated with compounds for overnight in the medium with final concentration of FBS 1.3% and DMSO 0.1%. After overnight (16 to 20 hours) incubation, media were removed and cells were lysed with 20 μL Glo Lysis Buffer (Promega) for 10-15 minutes followed by 10 minute incubation with 20 μL Dual Glo reagent (Promega) at room temperature. Firefly luciferase luminescence was measured using a BMG Pherastar plate reader. To each well, 20 μL Stop and Glo reagent was added and incubated for 10 minutes at room temperature. Renilla luminescence was measured using a BMG Pherastar plate reader. To calculate the effect of compounds on RORγt activity, firefly values were normalized against values of DMSO only and values of reference compound at saturating concentration, then further normalized against Renilla signals. IC50s were generated by plotting final Renilla normalized data against compound concentration and percent inhibition was calculated against DMSO control.

[2] = read-out: RORγt (FL) Reporter Assay A or B, % inhibition

Chain of human RORγt ligand binding domain (RORγt LBD) (P51449 other isoform, or with tags, fused parts or gaps): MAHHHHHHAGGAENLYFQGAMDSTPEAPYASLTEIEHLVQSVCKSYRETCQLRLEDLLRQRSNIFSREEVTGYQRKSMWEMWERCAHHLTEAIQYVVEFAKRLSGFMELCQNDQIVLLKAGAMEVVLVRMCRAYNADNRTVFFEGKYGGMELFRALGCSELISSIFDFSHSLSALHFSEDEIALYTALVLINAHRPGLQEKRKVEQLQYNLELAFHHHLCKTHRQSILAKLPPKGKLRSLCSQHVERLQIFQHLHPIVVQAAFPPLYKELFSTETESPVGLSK

| SMILES | Kd [1] [nM] | inhibition at 0.22 µM (full-length human RORγt; 0.22 μM compound concentration (******), read-out: RORγt (FL) Reporter Assay A or B, % inhibition) [%] | IC50 (full-length human RORγt) [nM] | inhibition at 6 µM (full-length human RORγt) [%] | inhibition at 3 µM (full-length human RORγt; [2]) [%] | inhibition at 0.67 µM (full-length human RORγt; 0.67 μM compound concentration (****), read-out: RORγt (FL) Reporter Assay A or B, % inhibition) [%] | inhibition at 2 µM (full-length human RORγt; [2]) [%] |
| --- | --- | --- | --- | --- | --- | --- | --- |
| CCc1nc(C(=O)NC[C@H]2CC[C@H](S(C)(=O)=O)CC2)c(Cl)n1-c1ccc(CC(C)C)cc1OC [Example 89, 5-Chloro-2-ethyl-1-(4-isobutyl-2-methoxyphenyl)-N-(((1r,4r)-4-(methylsulfonyl)cyclohexyl)methyl)-1H-imidazole-4-carboxamide] | 0.2 | – | 16 | – | – | 66 | – |
| [2H]C([2H])([2H])Oc1cc(CCC(F)(F)F)ccc1-n1c(CC)nc(C(=O)NC[C@H]2CC[C@H](S(C)(=O)=O)CC2)c1C#N [Example 29, 5-Cyano-2-ethyl-1-(2-(methoxy-d3)-4-(3,3,3-trifluoropropyl)phenyl)-N-(((1r,4r)-4-(methylsulfonyl)cyclohexyl)methyl)-1H-imidazole-4-carboxamide] | 15 | – | 87 | 95 | – | – | – |
| CCc1nc(C(=O)NC[C@]2(O)CC[C@@H](S(C)(=O)=O)CC2)cn1-c1c(F)cc(CC(C)C(F)(F)F)cc1F (stereo partly drawn) [Example 84, 1-(2,6-Difluoro-4-(3,3,3-trifluoro-2-methylpropyl)phenyl)-2-ethyl-N-(((1s,4s)-1-hydroxy-4-(methylsulfonyl)cyclohexyl)methyl)-1H-imidazole-4-carboxamide] | 2200 | – | 2000 | 35 | – | – | – |
| CCc1nc(C(=O)NC[C@H]2CC[C@H](S(C)(=O)=O)CC2)cn1-c1cnc(CCC(F)(F)F)cc1OC [Example 116, 2-Ethyl-1-(4-methoxy-6-(3,3,3-trifluoropropyl)pyridin-3-yl)-N-(((1r,4r)-4-(methylsulfonyl)cyclohexyl)methyl)-1H-imidazole-4-carboxamide] | 5000 | – | 3000 | 30 | – | – | – |
| CCc1nc(C(=O)NC[C@H]2CC[C@H](S(C)(=O)=O)CC2)cn1-c1ccc(C[C@@H](C)C(F)(F)F)cc1OC (single isomer, unassigned) [Example 18, 2-Ethyl-1-(2-methoxy-4-((R*)-3,3,3-trifluoro-2-methylpropyl)phenyl)-N-(((1r,4R)-4-(methylsulfonyl)cyclohexyl)methyl)-1H-imidazole-4-carboxamide] | 28 | – | 230 | – | – | – | 93 |
| CCc1nc(C(=O)NC[C@]2(O)CC[C@@H](S(C)(=O)=O)CC2)c(C#N)n1-c1ccc(CC(C)C(F)(F)F)cc1OC (stereo partly drawn) [Example 1, 5-Cyano-2-ethyl-N-(((1s,4s)-1-hydroxy-4-(methylsulfonyl)cyclohexyl)methyl)-1-(2-methoxy-4-(3,3,3-trifluoro-2-methylpropyl)phenyl)-1H-imidazole-4-carboxamide] | 4.6 | – | 40 | – | – | – | 103 |

More lines, now with the values ahead:

| Kd [1] [nM] | inhibition at 0.22 µM (full-length human RORγt; 0.22 μM compound concentration (******), read-out: RORγt (FL) Reporter Assay A or B, % inhibition) [%] | IC50 (full-length human RORγt) [nM] | inhibition at 6 µM (full-length human RORγt) [%] | inhibition at 3 µM (full-length human RORγt; [2]) [%] | inhibition at 0.67 µM (full-length human RORγt; 0.67 μM compound concentration (****), read-out: RORγt (FL) Reporter Assay A or B, % inhibition) [%] | inhibition at 2 µM (full-length human RORγt; [2]) [%] | SMILES |
| --- | --- | --- | --- | --- | --- | --- | --- |
| 55 | 40 | 170 | – | – | – | – | CCc1nc(C(=O)NC[C@]2(O)CC[C@@H](S(C)(=O)=O)CC2)c(C)n1-c1ccc(CC(C(F)(F)F)C(F)(F)F)c(F)c1 [Example 106, 2-Ethyl-1-(3-fluoro-4-(3,3,3-trifluoro-2-(trifluoromethyl)propyl)phenyl)-N-(((1s,4s)-1-hydroxy-4-(methylsulfonyl)cyclohexyl)methyl)-5-methyl-1H-imidazole-4-carboxamide] |
| 8.6 | – | 76 | 100 | – | – | – | CCc1nc(C(=O)NC[C@H]2CC[C@H](S(C)(=O)=O)CC2)c(C)n1-c1ncc(CC(C)(C)C(F)(F)F)cc1OC [Example 126, 2-Ethyl-1-(3-methoxy-5-(3,3,3-trifluoro-2,2-dimethylpropyl)pyridin-2-yl)-5-methyl-N-(((1r,4r)-4-(methylsulfonyl)cyclohexyl)methyl)-1H-imidazole-4-carboxamide] |
| 35 | – | 210 | – | 101 | – | – | CCc1nc(C(=O)NC[C@H]2CC[C@H](S(C)(=O)=O)C[C@@H]2O)c(Cl)n1-c1ncc(CC(C(F)(F)F)C(F)(F)F)cc1OC(F)F (stereo in doubt) [Example 64, 5-Chloro-1-(3-(difluoromethoxy)-5-(3,3,3-trifluoro-2-(trifluoromethyl)propyl)pyridin-2-yl)-2-ethyl-N-(((1R*,2S*,4S*)-2-hydroxy-4-(methylsulfonyl)cyclohexyl)methyl)-H-imidazole-4-carboxamide] |
| 28 | – | 110 | – | 105 | – | – | CCc1nc(C(=O)NC[C@@H]2CC[C@@H](S(C)(=O)=O)C[C@H]2O)c(Cl)n1-c1ncc(CC(C(F)(F)F)C(F)(F)F)cc1OC(F)F (stereo in doubt) [Example 65, 5-Chloro-1-(3-(difluoromethoxy)-5-(3,3,3-trifluoro-2-(trifluoromethyl)propyl)pyridin-2-yl)-2-ethyl-N-(((1S*,2R*,4R*)-2-hydroxy-4-(methylsulfonyl)cyclohexyl)methyl)-1H-imidazole-4-carboxamide] |
